pIC50: −log10 of the molar value. Read-outs that look alike come from different tables or passages of the source.
Columns and labels:
catena cells [1] = experiment: Morphological observation of treated catenae under the microscope; assay type: cell-based; conditions: for cells seen in cultures treated with high concentrations of compounds: 100 μM (rapamycin 25 μM, lovastatin acid 50 μM), cells re-entered the cell cycle without drug; for morphological change of treated catenae: microscope observation
Ovcar3-GTL catenae = experiment: Ovcar3-GTL catena drug sensitivity / proliferation screen (alamarBlue, 384-well); conditions: for Increase in Resistance Day6/Day 1: ratio of IC50 day 6 to day 1, Ovcar3-GTL catenae; for Increased Resistance of catena: catena with established glycocalyx versus monolayers
[2] = tested on: Ovcar5 monolayer (mesenchymal) cells; experiment: Ovarian cancer monolayer drug sensitivity (alamarBlue), Ovcar5; assay type: cell-based; conditions: for IC50: 25 cells seeded, drugs added 4 days after seeding, read-out: IC50 (μM) Ovcar5 monolayer
Description: (§1) The foregoing total of 29 compounds were tested in parallel on ovarian cancer monolayer cells by seeding 100 Ovcar3 monolayer (epithelial) or 25 Ovcar5 monolayer (mesenchymal) cells in 384-well plates. Drugs were added 4 days after cell seeding and cell viability was analyzed by alamarBlue staining. In general, catena cells with an established glycocalyx were on average 4-8 fold more resistant to these compounds when compared to monolayers. […]

[3] = tested on: Ovcar3 monolayer (epithelial) cells; experiment: Ovarian cancer monolayer drug sensitivity (alamarBlue), Ovcar3; assay type: cell-based; conditions: for IC50: 100 cells seeded, drugs added 4 days after seeding, read-out: IC50 (μM) Ovcar3 monolayer
Description: as §1

[4] = tested on: glycocalyx surrounding a catena; experiment: Particle exclusion experiment with red blood cells; assay type: cell-based; conditions: brief incubation with enzyme, RBCs overnight
Description: To visualize the glycocalyx surrounding a catena, a particle exclusion experiment was conducted using red blood cells (RBCs). Catenae were mechanically dissociated by pipetting or by brief incubation with hyaluronidase as before. RBCs from human peripheral blood were added and the mixture was incubated overnight in culture media. The cells were observed under the light microscope for the presence of a glycocalyx separating catena cells from the RBCs.

[5] = Viscosity of catena culture supernatant after enzyme treatment; conditions: a few drops 10 mg/mL enzyme
Description: In contrast, Ovcar3-GTL epithelial cells were 98% positive for CA125 by FACS and secreted 800 units/ml of CA125 into culture media. For the ELISA, cell supernatants were collected by spinning the cultures at 300×g for 5 min to remove cells and assayed by CA125 ELISA using an automated instrument, ADVIA Centaur XP Immunoassay System (Siemens Healthcare Diagnostics Inc.).
Hyaluronan is a glycosaminoglycan found in extracellular matrix and functions to provide microenvironmental cues in a number of biological processes, including tumor development [Toole, 2004]. Supernatants prepared as above were treated with a few drops 10 mg/mL hyaluronidase (Sigma) in deionized water.

catena cells [6] = experiment: Growth of catena cells upon disruption of the glycocalyx; assay type: cell-based
Description: To investigate the how catena cells grow upon disruption of the glycocalyx, catenae were dissociated to single cells with hyaluronidase treatment and plated in tissue culture treated flasks with or without 10% hyaluronidase enzyme solution (10 mg/ml) to prevent the formation of glycocalyx. In parallel, catenae were dissociated mechanically and plated in the absence of hyaluronidase.

[7] = tested on: low molecular weight complex of collagen and hyaluronan; experiment: Western blot (anti-COL1A2) of catena culture supernatant; assay type: biochemical
Description: The glycocalyx of the catena has two major components, i.e., hyaluronan and collagen, which interact and form a stable complex. […] Briefly, the supernatant fraction of catena cell cultures was separated from the cells by centrifugation. The supernatant was run in an SDS-PAGE gel and blotted with the anti-COL1A2 antibody. This complex was sensitive to hyaluronidase treatment but was not affected by collagenase type 1, 2 or 4 treatment. This hyaluronan-collagen complex could be important for the formation of catena glycocalyx and drug resistance or metastatic potential conferred to catena cells by the glycocalyx.

catena cells [8] = experiment: In vitro clonogenicity assay of catena cells; assay type: cell-based; conditions: enzyme included in the clonogenic assay; attached cells
Description: Catena cells were dissociated with hyaluronidase, allowed to attach to tissue culture plates and grown in the presence hyaluronidase for 7 days. Under these conditions, cells remained attached to tissue culture plates. The cells were harvested and subjected to an in vitro clonogenicity assay in the presence and absence of hyaluronidase. In parallel, mechanically-dissociated catena were subjected to the in vitro clonogenicity assay in the presence and absence of hyaluronidase.

catena cells [9] = experiment: Combination drug screening: paclitaxel after PEGylated enzyme treatment; assay type: cell-based
Description: Twenty-five […] seeded into 384-well plates. After 5 days, cells were treated with either PEGylated hyaluronidase, PEGylated collagenase or both for 10 minutes at 37° C. Without removing the enzymes, paclitaxel was added over a series of dilutions, followed by alamarBlue addition on day 9 with absorbance measured two days later.

[10] = tested on: established tumor spheroids; experiment: Established tumor spheroid drug sensitivity (alamarBlue)
[11] = 24 h, read-out: IC50 (μM) Addition on Day 1, Ovcar3-GTL catenae, compound added one day after seeding (cells predominantly lacking a glycocalyx)
[12] = 144 h, read-out: IC50 (μM) Addition on Day 6, Ovcar3-GTL catenae, compound added six days after seeding (established or substantial glycocalyx)
[13] = read-out: IC50 (μM) Addition on Day 1, Ovcar3-GTL catenae, compound added one day after seeding (cells predominantly lacking a glycocalyx)
[14] = read-out: IC50 (μM) Addition on Day 6, Ovcar3-GTL catenae, compound added six days after seeding (established or substantial glycocalyx)
[15] = read-out: IC50 (μM) No coat, pathway-specific inhibitors, catena cells without glycocalyx coat
[16] = read-out: IC50 (μM) With coat, pathway-specific inhibitors, catena cells with glycocalyx coat

In the case of `CC[C@@]1(O)C(=O)OCc2c1cc1n(c2=O)Cc2cc3c(CN(C)C)c(O)ccc3nc2-1` [topotecan], the “cells seen in cultures treated with high concentrations of compounds” value (“cells seen in cultures treated” below) (catena cells [1]) was “live, large single cells, i.e., cells arrested at mitosis”, the IC50 (Ovcar3-GTL catenae; [11]) was 20 nM and the IC50 (Ovcar3-GTL catenae; [12]) was over 100000 nM. The “Increase in Resistance Day6/Day 1” value (Ovcar3-GTL catenae) was 5,000 fold.

For `C/C(=C\c1csc(C)n1)[C@@H]1C/C=C(/C(F)(F)F)C/C=C/[C@H](C)[C@H](O)[C@@H](C)C(=O)C(C)(C)[C@@H](O)CC(=O)O1` [fludelone], the IC50 [2] was 0.0004 µM, the IC50 [3] was 0.0008 µM and the “cells seen in cultures treated” value (catena cells [1]) was “live, large single cells, i.e., cells arrested at mitosis”. The “Increased Resistance of catena” value (Ovcar3-GTL catenae) was 125,000 fold, the IC50 (Ovcar3-GTL catenae; [13]) was at most 0.012 nM and the IC50 (Ovcar3-GTL catenae; [14]) was over 100000 nM.

With `CC[C@H](C)C(=O)O[C@H]1C[C@@H](C)C=C2C=C[C@H](C)[C@H](CC[C@@H](O)C[C@@H](O)CC(=O)O)[C@H]21` [lovastatin acid] the “cells seen in cultures treated” value (catena cells [1]) was “live, large single cells, i.e., cells arrested at mitosis”, the IC50 (Ovcar3-GTL catenae; [11]) was 25000 nM and the IC50 (Ovcar3-GTL catenae; [12]) was 50000 nM. The “Increase in Resistance Day6/Day 1” value (Ovcar3-GTL catenae) was 2 fold.

In the case of `O=C(CCCCCCC(=O)Nc1ccccc1)NO` [SAHA, Vorinostat], the “morphological change of treated catenae” value (catena cells [1]) was “formation of tight spheroids”.

With `Nc1ccn([C@@H]2O[C@H](CO)[C@@H](O)[C@@H]2O)c(=O)n1` [Ara-C] the “cells seen in cultures treated” value (catena cells [1]) was “live, large single cells, i.e., cells arrested at mitosis”, the “Increase in Resistance Day6/Day 1” value (Ovcar3-GTL catenae) was 2,000 fold and the IC50 (Ovcar3-GTL catenae; [13]) was 50 nM. For the same molecule, the IC50 (Ovcar3-GTL catenae; [14]) was over 100000 nM.

With `O=c1[nH]cc(F)c(=O)[nH]1` [5-FU, 5-fluorouracil] the “morphological change of treated catenae” value (catena cells [1]) was “formation of fused chains”, the IC50 (Ovcar3-GTL catenae; [11]) was 3000 nM and the IC50 (Ovcar3-GTL catenae; [12]) was over 100000 nM. The “Increase in Resistance Day6/Day 1” value (Ovcar3-GTL catenae) was 33 fold.

In the case of hyaluronidase, the “morphological change of treated catenae” value (catena cells [1]; listed as non-PEGylated hyaluronidase) was “caused aggregation of catena cells”, the “glycocalyx coat in RBC particle exclusion” value [4] was “completely lacked a glycocalyx” and the “viscosity of culture supernatant” value [5] was “rapidly reduced the viscosity”. The “growth of catena cells, continuous enzyme treatment” value (catena cells [6]; 10% enzyme solution (10 mg/ml) in culture) was “attached to tissue culture plates and formed epithelial and mesenchymal monolayers”, the “growth of catena cells, brief enzyme treatment, plated without enzyme” value (catena cells [6]; dissociated to single cells with enzyme) was “no longer formed free floating chains but rather proliferated as irregular aggregates in suspension” and the “effect on hyaluronan-collagen complex (less than 20 kDa)” value [7] was “sensitive”. For the same molecule, the “colony size in clonogenic assay” value (catena cells [8]) was “further reduced”.

`CC(=O)O[C@H]1C(=O)[C@@]2(C)[C@H]([C@H](OC(=O)c3ccccc3)[C@]3(O)C[C@H](OC(=O)[C@H](O)[C@@H](NC(=O)c4ccccc4)c4ccccc4)C(C)=C1C3(C)C)[C@]1(OC(C)=O)CO[C@@H]1C[C@@H]2O` [paclitaxel] showed an IC50 ([2]; Homo sapiens, OVCAR-5, 96 h) of 0.025 µM, a pIC50 ([2]; Homo sapiens, OVCAR-5, subnanomolar to no more than 50 nM, read-out: IC50 Ovcar5 monolayer cells) of at least 7.30 and an IC50 ([3]; Homo sapiens, OVCAR-3, 96 h) of 0.025 µM. For the same molecule, the pIC50 ([3]; Homo sapiens, OVCAR-3, subnanomolar to no more than 50 nM, read-out: IC50 Ovcar3 monolayer cells) was at least 7.30, the “cells seen in cultures treated” value (catena cells [1]) was “live, large single cells, i.e., cells arrested at mitosis” and the “decrease of paclitaxel IC50 after PEGylated hyaluronidase” value (catena cells [9]; enzyme 10 min at 37° C. on day 5 before paclitaxel) was 2.5 fold. For the same molecule, the “decrease of paclitaxel IC50 after combination of PEGylated hyaluronidase and PEGylated collagenase” value (catena cells [9]; enzymes 10 min at 37° C. on day 5 before paclitaxel) was 16 fold, the IC50 (Ovcar3-GTL catenae; [11]) was at most 0.012 nM and the IC50 (Ovcar3-GTL catenae; [12]) was over 100000 nM. For the same molecule, the IC50 (Ovcar3-GTL catenae; Homo sapiens, OVCAR-3, read-out: IC50 (μM) Ovcar3 catena, catena cells with an established glycocalyx (Table D)) was over 100000 nM and the “Increased Resistance of catena” value (Ovcar3-GTL catenae) was 4,000 fold.

In the case of `COc1cc2c(cc1OC)[C@@H]1C(=O)c3ccc4c(c3O[C@@H]1CO2)C=CC(C)(C)O4` [deguelin], the pIC50 ([10]; read-out: spheroid IC50) was 6.40, the “additional resistance conferred by spheroid formation” value ([10]; spheroid versus catena IC50) was 15 fold and the IC50 (Ovcar3-GTL catenae; 24 h, read-out: IC50 (μM) Addition on Day 1) was 25 nM. For the same molecule, the IC50 (Ovcar3-GTL catenae; 144 h, read-out: IC50 (μM) Addition on Day 6) was 25 nM.

Molecule `CS(=O)(=O)c1ccc(C(=O)Nc2ccc(Cl)c(-c3ccccn3)c2)c(Cl)c1` [GDC-0449 (Vismodegib), Vismodegib] has an IC50 (Ovcar3-GTL catenae; [15]) of over 25000 nM and an IC50 (Ovcar3-GTL catenae; [16]) of over 25000 nM.

Molecule `Cn1c(=O)n(-c2ccc(C(C)(C)C#N)cc2)c2c3cc(-c4cnc5ccccc5c4)ccc3ncc21` [BEZ235 (NVP-BEZ235)] has an IC50 (Ovcar3-GTL catenae; [15]) of 50 nM and an IC50 (Ovcar3-GTL catenae; [16]) of over 25000 nM.
